Assay [1] addresses T1, ΔN LSD1-CoREST (Homo sapiens, UniProt O60341+Q9UKL0).
T1 construct: The N terminally truncated (aa 171–852) LSD1 plasmid (pGEX-6P-1-ΔN LSD1); GST (cleaved yes); made in house; host or cells: E. coli Rosetta (DE3) pLysS, co-expression
The assay can be described thus: Horseradish peroxidase (HRP) coupled demethylase assay on 21 a.a. H3K4me2 peptide substrate. The following applies: for effect of peptide on LSD1 demethylation activity (absorbance vs time): 10 μM peptide, 10 μM H3K4me2 21 aa substrate; for effect of peptide on LSD1 demethylation activity (absorbance vs time) / Ki: 0.3 μM ΔN LSD1-CoREST; for effect of peptide on LSD1 demethylation activity (absorbance vs time) / Ki / acts as substrate of LSD1: HRP-coupled assay; for fold weaker inhibition (Ki) compared to the NLS peptide: 21 aa H3K4me2 model peptide substrate; for Ki: H3K4me2 (1-21) peptide 10-60 μM, 50 mM Hepes pH 7.5, 25 °C, competitive fit, N = 2, read-out: inhibition constant Ki (Ki app) on H3K4me2 peptide substrate; for acts as substrate of LSD1: 10 μM peptide alone. It is filed as biochemical. How it is done: An inhibition study was performed using horseradish peroxidase (HRP) coupled demethylase assay in the presence of NLS, P1, or P2 peptides, using the 21 a.a H3K4me ([2]) peptide as substrate ([9], [38]). […] When a full inhibition study was performed using different concentrations of the 21 a.a. […] Control experiments indicate that the NLS peptide directly influences the LSD1 catalyzed reaction and that inhibition is not an artifact of the HRP-coupled assay system (Fig. S8).
LSD1-CoREST activity assays were performed using well-established peroxidase-coupled assay that monitors H2O2 production under aerobic conditions ([48]). Initial velocity measurements were measured using a Shimadzu UV2600 UV-Visible spectrophotometer equipped with thermostated cell holder (T = 25 °C). ΔN LSD1-CoREST was buffer exchanged into 25 mM Hepes pH 7.4, 100 mM NaCl, and 5 mM TCEP buffer. Each 150 μl reaction mixture contained 50 mM Hepes (Na) pH 7.5, 0.3 μM ΔN LSD1-CoREST, 1 μg of HRP, 0.1 mM 4-aminoantipyrine, and contained various substrate concentrations (10, 20, 30, 40, and 60 μM). Enzyme reactions were initiated by the addition of substrate; H3K4me2 peptide aa 1 to 21 or the NLS-K114me2 peptide (107–120, dimethylated at K114), into the reaction mixture in quartz cuvette. Activity region monitored was 0 to 30 s, and total time of each measurement was 180 s. Baseline correction was done at 505 to 525 nm. Changes in absorbance were measured at 515 nm wavelength and initial velocity calculations were done using an extinction coefficient of 26,000 M^−1 cm^−1 by Graphpad Prism (http://www.graphpad.com). Initial velocity values obtained from absorbance versus time graph, and they were fitted to Michaelis-Menten equation nonlinear regression and obtained Vmax (maximum velocity), apparent kmax (turnover number) and Km (Michaelis constant).
Peptide inhibition assays in presence of model substrate were conducted as follows using a peroxidase-coupled assay that monitors H2O2 production under aerobic conditions. A 150 μl reaction mixture contained 50 mM Hepes (Na) pH 7.5, 0.3 μM ΔN LSD1-CoREST, 1 μg of HRP, 0.1 mM 4-aminoantipyrine, 1.0 mM 3,5-dichloro-2- hydroxybenzenesulfonic acid, NLSK114me2 10 μM (as inhibitor and substrate)/NLSp∗ 10 μM/NLS 10 μM/P1 10 μM/P2 10 μM and H3K4me2 21aa substrate 10 μM. Enzyme reactions were initiated by the addition of substrate; H3K4me2 peptide aa (1–21) into the reaction mixture in quartz cuvette. Initial velocity values obtained from absorbance versus time graph were fitted to inhibition models using nonlinear regression fit. Complete kinetics profiles were performed for the NLS and NLSp∗ peptides, where different concentrations of NLS (0, 2.5 μM, 5 μM, 10 μM) or NLSp∗ (0, 10 μM, 40 μM, 100 μM) were incubated with freshly prepared ΔN LSD1-CoREST.

The target of a further assay is LSD1. The following applies: H3K4me2 model peptide substrate, Ki/M, read-out: Ki (Ki app), Table S4, cited from earlier work.
The target in assay [2] is T1, ΔN LSD1-CoREST. The assay can be described thus: Quantitative Western blot assay of demethylation on H3K4me2 nucleosome substrates in presence of NLS peptide. The format is biochemical. Particulars: 2 μM ΔN LSD1-CoREST, 100 nM H3K4me2 nucleosome (147 bp DNA), 50 mM Hepes pH 8.0, 50 mM KCl, 25 °C, from relative kobs, Hill coefficient set to 1, N = 2; read-out: IC50 for inhibition of demethylation on H3K4me2 nucleosome substrates. An excerpt:
Based on these coupled assay results and data (Fig. 2, C and D), we developed an in vitro quantitative WB assay to monitor LSD1-catalyzed demethylation on H3K4me2 nucleosome substrates. This approach provides enhanced reliability of the antibody reagents as well as a robust measure of the impact of the NLS peptide on LSD1’s ability to demethylate nucleosomes ([39]). A series of time-course assays with increasing NLS peptide measured the fraction of demethylated H3K4me2 nucleosomes containing a 147 bp DNA, and this was visualized using an anti-H3K4me2-specific antibody or a control H3 antibody (Fig. 4, B and C). Here, dividing the H3K4me2 antibody signal by the H3 antibody signal allowed for quantitation of each data point, where the disappearance of H3K4me2 signal directly corresponds to the NLS's ability to impact LSD1’s demethylation activity. The H3K4me2/H3 ratios were normalized at time zero and plotted as a function of time (minutes), and the determined rate constant (kobs) values were evaluated at increasing NLS concentrations (Fig. 4, B and C).
Quantitative WB activity assays of the ΔN LSD1- CoREST and FL-LSD1- CoREST at 2, 5, 10, and 20 μM concentrations were performed in reaction conditions containing 50 mM Hepes (pH 8.0), 50 mM KCl, 5% glycerol, and 1 mM TCEP and were initiated with 100 nM nucleosome substrate. […]

Entries after “also recorded” stand apart in the source; their conditions may differ. Where two headings read alike, the source gives them in different places.

As to “REMDESLANLSEDEYY [P1, negatively charged LSD1 peptide region a.a; 121–136]”, the “effect of peptide on LSD1 demethylation activity (absorbance vs time)” value (“effect of peptide … (absorbance vs time)” for short) at ΔN LSD1-CoREST [1] is given as “do not inhibit; also recorded: did not influence the demethylation reaction”. On to “ARTKmeQTARmeKSTGGKAPRKQLA [H3(1-21)K4meR8me]”, for which, at LSD1 (supplement numbering ref 7), the Ki is 100 µM. For Ac-GRRDDRRKRAKVEY-NH2 [NLS-p∗], at ΔN LSD1-CoREST [1], the “effect of peptide … (absorbance vs time)” value is reported as “do not obstruct LSD1-catalyzed demethylation”, the “fold weaker inhibition (Ki) compared to the NLS peptide” value is “approximately 12 fold” and the Ki worked out at 38.7 ± 1.8 µM. Also, at ΔN LSD1-CoREST [1] (listed as NLSp*), the “effect of peptide … (absorbance vs time)” value is “does not inhibit LSD1-catalyzed” and the “fold weaker inhibition (Ki) compared to the NLS peptide” value is 10 fold. Regarding “ARTKQTARKSTG [H3 (1−12), histone H3 peptide residues 1-12]”, at LSD1 (supplement numbering ref 5, 6), the Ki was 199 µM.

Consider “ARTKpropQTARKSTGGKAPRKQLA [H3(1-21) K4propargylamine]”, for which the Ki at LSD1 (supplement numbering ref 9) is 16.6 µM. Take “GRRTSRRKme2RAKVEY [NLS-K114me2, dimethylated K114 NLS peptide, aa 107–120]”: the “acts as substrate of LSD1” value on ΔN LSD1-CoREST [1] is listed as “does not serve as a substrate”; on ΔN LSD1-CoREST [1] (listed as NLS K114me2), “does NOT act as a substrate of LSD1”. Further, the “effect of peptide … (absorbance vs time)” value at ΔN LSD1-CoREST [1] was “inhibition of demethylation activity was retained”; at ΔN LSD1-CoREST [1] (listed as NLS K114 me2), “both inhibit LSD1 activity”. For the molecule PRGFLVKRSKKSTPVSYRVR [INSM1 (1−20)], the Ki at LSD1 (supplement numbering ref 4) is 0.24 µM. As to “ARTKmeQTARKSpTGGKAPRKQLA [H3(1-21) K4me S10p]”, the Ki on LSD1 (supplement numbering ref 5, 6) was 31 µM.

With “YSEEERNAKAEKEKK [P2, neutral-charged α-helical containing LSD1 peptide region a.a; 137–151]”, the “effect of peptide … (absorbance vs time)” value at ΔN LSD1-CoREST [1] is listed as “do not inhibit; also recorded: did not influence the demethylation reaction”.

For the molecule PRSFLVRKPSDPNRKPNYSE [SNAIL (1-20)], the Ki at LSD1 (supplement numbering ref 4) is 0.21 µM.

Regarding `CC(=O)NCC(=O)N[C@@H](CCCNC(=N)N)C(=O)N[C@@H](CCCNC(=N)N)C(=O)N[C@H](C(=O)N[C@@H](CO)C(=O)N[C@@H](CCCNC(=N)N)C(=O)N[C@@H](CCCNC(=N)N)C(=O)N[C@@H](CCCCN)C(=O)N[C@@H](CCCNC(=N)N)C(=O)N[C@@H](C)C(=O)N[C@@H](CCCCN)C(=O)N[C@H](C(=O)N[C@@H](CCC(=O)O)C(=O)N[C@@H](Cc1ccc(O)cc1)C(N)=O)C(C)C)[C@@H](C)O` [NLS], the “effect of peptide … (absorbance vs time)” value at ΔN LSD1-CoREST [1] (listed as NLS peptide) is listed as “inhibits LSD1; also recorded: both inhibit LSD1 activity; also recorded: acted as an inhibitor”. Also, on ΔN LSD1-CoREST [1], the Ki was determined as 3.3 ± 0.6 µM. On ΔN LSD1-CoREST [1] (Lineweaver Burk plot, 0-10 μM NLS peptide, H3K4me2 peptide substrate), the mode of inhibition entry was “competitive inhibition; also recorded: competitive inhibitor”. Moreover, the IC50 at ΔN LSD1-CoREST [2] worked out at 30.4 ± 3.2 µM. Turning to “QTARKSTGGKAPRKQLA [H3(5-21), histone H3 peptide residues 5-21]”, the Ki on LSD1 (supplement numbering ref 5, 6) is 87 µM.

Source of the values: PMC11388019, “Autoregulatory mechanism of enzyme activity by the nuclear localization signal of lysine-specific demethylase 1 [drawing 1]” (The Journal of Biological Chemistry, 2024).
